Test [1] has as its system A/South Korea/90207/2020 NA-H275Y virus. Format: cell-based, influenza A(H1N1)pdm09 virus.
Test [2] concerns A/South Korea/90207/2020 PA-I38T virus. Format: cell-based, influenza A(H1N1)pdm09 virus.
Test [3] concerns A/South Korea/90207/2020 NA-H275Y + PA-I38T virus. The class given is cell-based, influenza A(H1N1)pdm09 virus.
Test [4] has as its target neuraminidase of A/South Korea/90207/2020 NA-H275Y virus (Influenza A virus (A(H1N1)pdm09), UniProt A0A0X9QTS2, H275Y). Format: biochemical.
For test [5], the target named is neuraminidase of A/South Korea/90207/2020 PA-I38T virus (Influenza A virus (A(H1N1)pdm09), UniProt A0A0X9QTS2). Format: biochemical.
Test [6] addresses neuraminidase of A/South Korea/90207/2020 NA-H275Y + PA-I38T virus (Influenza A virus (A(H1N1)pdm09), UniProt A0A0X9QTS2, H275Y). Format: biochemical.
The mark [7] stands for this setting: read-out: EC50 nM ± SD (column headed IC50; footnote: EC50).

Regarding `O=C1c2c(O)c(=O)ccn2N([C@@H]2c3ccccc3SCc3c2ccc(F)c3F)[C@@H]2COCCN12` [Baloxavir, Baloxavir acid], the “EC50 fold change compared to WT” value is 1 fold in test [1], 373 fold in test [2] and 190 fold in test [3]. Also, the EC50 (usually the concentration at which the effect is half-maximal) in test [1] (setting [7]) came to 1.2 ± 0.3 nM; in test [2] (setting [7]), 380 nM; in test [3] (setting [7]) it was 194 nM.

Turning to `CCC(CC)[C@H](NC(C)=O)[C@@H]1[C@H](O)[C@@H](C(=O)O)C[C@H]1N=C(N)N` [Peramivir, peramivir], the IC50 (as a rule, the point on the concentration scale where inhibition reaches its midpoint) in test [4] was found to be 16.8 ± 3.1 nM; in test [5] it was 0.26 nM; in test [6], 16.2 nM. Further, in test [5], the “IC50 fold change compared to WT” value worked out at 2 fold.

Source of the values: article PMC9517990 (Communications Biology, 2022).
